Calls of active or inactive are those of the source. The calls are words filed in the database; no cut-off is given here.

What is called Km is the concentration of substrate that gives half-maximal velocity. For orientation: Vmax means the rate approached at saturating substrate. The term kcat denotes the maximal rate divided by the concentration of active sites. By inhibition is commonly meant the change of the read-out against control, counted positive when it falls. For orientation: Ki means the equilibrium dissociation constant of an inhibitor or competing ligand from its target. Low values mean higher affinity, high ones lower affinity.

The species named for the first assay is Rattus norvegicus. In words: Activity of rat glutaryl-co A dehydrogenase expressed in Escherichia coli BL21.
Details: not given
Regarding `CC/C=C/CC(=O)SCCNC(=O)CCNC(=O)C(O)C(C)(C)COP(=O)(O)OP(=O)(O)OC[C@H]1O[C@@H](n2cnc3c(N)ncnc32)[C@H](O)[C@@H]1OP(=O)(O)O` (stereo not given in full), the Km came to 51 µM, the maximal velocity (Vmax) was 136 nmol/mg/min and the kcat was 0.099 s⁻¹.

As for `CC/C=C\CC(=O)SCCNC(=O)CCNC(=O)C(O)C(C)(C)COP(=O)(O)OP(=O)(O)OC[C@H]1O[C@@H](n2cnc3c(N)ncnc32)[C@H](O)[C@@H]1OP(=O)(O)O` (stereo not given in full), the Michaelis constant (Km) was found to be 49 µM, the maximum rate (Vmax) worked out at 331 nmol/mg/min and the turnover number (kcat) stood at 0.24 s⁻¹.

Take `CCCCCC(=O)SCCNC(=O)CCNC(=O)C(O)C(C)(C)COP(=O)(O)OP(=O)(O)OC[C@H]1O[C@@H](n2cnc3c(N)ncnc32)[C@H](O)[C@@H]1OP(=O)(O)O` (stereo not given in full): the Michaelis-Menten constant (Km) is 20 µM and the kcat stood at 2.1 s⁻¹.

`CCCC/C=C/CC(=O)SCCNC(=O)CCNC(=O)C(O)C(C)(C)COP(=O)(O)OP(=O)(O)OC[C@H]1O[C@@H](n2cnc3c(N)ncnc32)[C@H](O)[C@@H]1OP(=O)(O)O` (stereo not given in full): the Km stood at 58 µM, the Vmax was 56 nmol/mg/min and the turnover number (kcat) was 0.041 s⁻¹.

For the molecule `CCCCCC/C=C/CC(=O)SCCNC(=O)CCNC(=O)C(O)C(C)(C)COP(=O)(O)OP(=O)(O)OC[C@H]1O[C@@H](n2cnc3c(N)ncnc32)[C@H](O)[C@@H]1OP(=O)(O)O` (stereo not given in full), the Km came out at 74 µM, the maximal velocity (Vmax) amounted to 27 nmol/mg/min and the turnover number (kcat) turned out to be 0.02 s⁻¹.

Regarding `CCCCCCCC(=O)SCCNC(=O)CCNC(=O)C(O)C(C)(C)COP(=O)(O)OP(=O)(O)OC[C@H]1O[C@@H](n2cnc3c(N)ncnc32)[C@H](O)[C@@H]1OP(=O)(O)O` (stereo not given in full), the Km came out at 28 µM and the kcat is 1.1 s⁻¹.

Take `CCCCCCCCCC(=O)SCCNC(=O)CCNC(=O)C(O)C(C)(C)COP(=O)(O)OP(=O)(O)OC[C@H]1O[C@@H](n2cnc3c(N)ncnc32)[C@H](O)[C@@H]1OP(=O)(O)O` (stereo not given in full): the Michaelis constant (Km) stood at 54 µM and the catalytic constant (kcat) is 0.18 s⁻¹.

As to `CCCCCC/C=C\CC(=O)SCCNC(=O)CCNC(=O)C(O)C(C)(C)COP(=O)(O)OP(=O)(O)OC[C@H]1O[C@@H](n2cnc3c(N)ncnc32)[C@H](O)[C@@H]1OP(=O)(O)O` (stereo not given in full), the Michaelis-Menten constant (Km) was found to be 88 µM, the maximum rate (Vmax) turned out to be 62 nmol/mg/min and the kcat is 0.046 s⁻¹.

Consider `CCCC(=O)SCCNC(=O)CCNC(=O)C(O)C(C)(C)COP(=O)(O)OP(=O)(O)OC[C@H]1O[C@@H](n2cnc3c(N)ncnc32)[C@H](O)[C@@H]1OP(=O)(O)O` (stereo not given in full), for which the Km came to 12 µM and the catalytic constant (kcat) is 2.7 s⁻¹.

Turning to `CCCC/C=C\CC(=O)SCCNC(=O)CCNC(=O)C(O)C(C)(C)COP(=O)(O)OP(=O)(O)OC[C@H]1O[C@@H](n2cnc3c(N)ncnc32)[C@H](O)[C@@H]1OP(=O)(O)O` (stereo not given in full), the Michaelis constant (Km) amounted to 66 µM, the Vmax is 113 nmol/mg/min and the turnover number (kcat) amounted to 0.083 s⁻¹.

Another assay is filed under the species Rattus norvegicus. In words: Irreversible inhibition of rat glutaryl-co A dehydrogenase by dialysis method.
Details: not given
As for `CCCCCC#CC(=O)SCCNC(=O)CCNC(=O)C(O)C(C)(C)COP(=O)(O)OP(=O)(O)OC[C@H]1O[C@@H](n2cnc3c(N)ncnc32)[C@H](O)[C@@H]1OP(=O)(O)O` (stereo not given in full), the inhibition entry is “Active”.

Take `CCC/C=C/C#CC(=O)SCCNC(=O)CCNC(=O)C(O)C(C)(C)COP(=O)(O)OP(=O)(O)OC[C@H]1O[C@@H](n2cnc3c(N)ncnc32)[C@H](O)[C@@H]1OP(=O)(O)O` (stereo not given in full): the inhibition entry was “Active”.

For a further assay, the species on record is Rattus norvegicus. In words: Irreversible inhibition of rat glutaryl-co A dehydrogenase by HPLC analysis.
Details: not given
For `CCCCCC#CC(=O)SCCNC(=O)CCNC(=O)C(O)C(C)(C)COP(=O)(O)OP(=O)(O)OC[C@H]1O[C@@H](n2cnc3c(N)ncnc32)[C@H](O)[C@@H]1OP(=O)(O)O` (stereo not given in full), the inhibition entry is “Active”.

`CCC/C=C/C#CC(=O)SCCNC(=O)CCNC(=O)C(O)C(C)(C)COP(=O)(O)OP(=O)(O)OC[C@H]1O[C@@H](n2cnc3c(N)ncnc32)[C@H](O)[C@@H]1OP(=O)(O)O` (stereo not given in full): the inhibition result was “Active”.

The species named for a further assay is Rattus norvegicus. Description: Time-dependent inhibition of rat glutaryl-co A dehydrogenase after 160 mins by spectrophotometry.
Details: not given
For `CCC/C=C/C#CC(=O)SCCNC(=O)CCNC(=O)C(O)C(C)(C)COP(=O)(O)OP(=O)(O)OC[C@H]1O[C@@H](n2cnc3c(N)ncnc32)[C@H](O)[C@@H]1OP(=O)(O)O` (stereo not given in full), the inhibition worked out at 20%.

The species named for another assay is Rattus norvegicus. In words: Ratio of Kcat to Km for rat glutaryl-co A dehydrogenase expressed in Escherichia coli BL21.
Details: not given
Regarding `CC/C=C/CC(=O)SCCNC(=O)CCNC(=O)C(O)C(C)(C)COP(=O)(O)OP(=O)(O)OC[C@H]1O[C@@H](n2cnc3c(N)ncnc32)[C@H](O)[C@@H]1OP(=O)(O)O` (stereo not given in full), the kcat/Km (10'-3/microM/s) worked out at 1.9.

Regarding `CC/C=C\CC(=O)SCCNC(=O)CCNC(=O)C(O)C(C)(C)COP(=O)(O)OP(=O)(O)OC[C@H]1O[C@@H](n2cnc3c(N)ncnc32)[C@H](O)[C@@H]1OP(=O)(O)O` (stereo not given in full), the kcat/Km (10'-3/microM/s) came to 4.9.

In the case of `CCCCCC(=O)SCCNC(=O)CCNC(=O)C(O)C(C)(C)COP(=O)(O)OP(=O)(O)OC[C@H]1O[C@@H](n2cnc3c(N)ncnc32)[C@H](O)[C@@H]1OP(=O)(O)O` (stereo not given in full), the kcat/Km was 110000 M⁻¹ s⁻¹.

Turning to `CCCC/C=C/CC(=O)SCCNC(=O)CCNC(=O)C(O)C(C)(C)COP(=O)(O)OP(=O)(O)OC[C@H]1O[C@@H](n2cnc3c(N)ncnc32)[C@H](O)[C@@H]1OP(=O)(O)O` (stereo not given in full), the kcat/Km came to 7.1 ×10⁻⁴ /µM/s.

As to `CCCCCC/C=C/CC(=O)SCCNC(=O)CCNC(=O)C(O)C(C)(C)COP(=O)(O)OP(=O)(O)OC[C@H]1O[C@@H](n2cnc3c(N)ncnc32)[C@H](O)[C@@H]1OP(=O)(O)O` (stereo not given in full), the kcat/Km is 2.7 ×10⁻⁴ /µM/s.

Consider `CCCCCCCC(=O)SCCNC(=O)CCNC(=O)C(O)C(C)(C)COP(=O)(O)OP(=O)(O)OC[C@H]1O[C@@H](n2cnc3c(N)ncnc32)[C@H](O)[C@@H]1OP(=O)(O)O` (stereo not given in full), for which the kcat/Km (10'-2/microM/s) came to 3.9.

Turning to `CCCCCCCCCC(=O)SCCNC(=O)CCNC(=O)C(O)C(C)(C)COP(=O)(O)OP(=O)(O)OC[C@H]1O[C@@H](n2cnc3c(N)ncnc32)[C@H](O)[C@@H]1OP(=O)(O)O` (stereo not given in full), the kcat/Km (10'-3/microM/s) turned out to be 3.3.

On to `CCCCCC/C=C\CC(=O)SCCNC(=O)CCNC(=O)C(O)C(C)(C)COP(=O)(O)OP(=O)(O)OC[C@H]1O[C@@H](n2cnc3c(N)ncnc32)[C@H](O)[C@@H]1OP(=O)(O)O` (stereo not given in full), for which the kcat/Km amounted to 5.2 ×10⁻⁴ /µM/s.

Take `CCCC(=O)SCCNC(=O)CCNC(=O)C(O)C(C)(C)COP(=O)(O)OP(=O)(O)OC[C@H]1O[C@@H](n2cnc3c(N)ncnc32)[C@H](O)[C@@H]1OP(=O)(O)O` (stereo not given in full): the kcat/Km came out at 230000 M⁻¹ s⁻¹.

Consider `CCCC/C=C\CC(=O)SCCNC(=O)CCNC(=O)C(O)C(C)(C)COP(=O)(O)OP(=O)(O)OC[C@H]1O[C@@H](n2cnc3c(N)ncnc32)[C@H](O)[C@@H]1OP(=O)(O)O` (stereo not given in full), for which the kcat/Km (10'-3/microM/s) is 1.3.

For the next assay, the species on record is Rattus norvegicus. In words: (§1) Inhibition of rat glutaryl-co A dehydrogenase by spectrophotometry.
Details: not given
`CCCCCC#CC(=O)SCCNC(=O)CCNC(=O)C(O)C(C)(C)COP(=O)(O)OP(=O)(O)OC[C@H]1O[C@@H](n2cnc3c(N)ncnc32)[C@H](O)[C@@H]1OP(=O)(O)O` (stereo not given in full) displayed a Kinact of 0.2 min⁻¹.

In turn, `CCC/C=C/C#CC(=O)SCCNC(=O)CCNC(=O)C(O)C(C)(C)COP(=O)(O)OP(=O)(O)OC[C@H]1O[C@@H](n2cnc3c(N)ncnc32)[C@H](O)[C@@H]1OP(=O)(O)O` (stereo not given in full) showed a Kinact of 0.024 min⁻¹.

Staying with this assay, now noted: TDE = time-dependent effect.
Consider `CCCCCC#CC(=O)SCCNC(=O)CCNC(=O)C(O)C(C)(C)COP(=O)(O)OP(=O)(O)OC[C@H]1O[C@@H](n2cnc3c(N)ncnc32)[C@H](O)[C@@H]1OP(=O)(O)O` (stereo not given in full), for which the inhibition result is “tde”.

With `CCC/C=C/C#CC(=O)SCCNC(=O)CCNC(=O)C(O)C(C)(C)COP(=O)(O)OP(=O)(O)OC[C@H]1O[C@@H](n2cnc3c(N)ncnc32)[C@H](O)[C@@H]1OP(=O)(O)O` (stereo not given in full), the inhibition result was “tde”.

Target in the next assay: not listed separately
The assay is described as §1.
Details: not given
The molecule `CCCCCC#CC(=O)SCCNC(=O)CCNC(=O)C(O)C(C)(C)COP(=O)(O)OP(=O)(O)OC[C@H]1O[C@@H](n2cnc3c(N)ncnc32)[C@H](O)[C@@H]1OP(=O)(O)O` (stereo not given in full) had a Ki of 18 µM.

`CCC/C=C/C#CC(=O)SCCNC(=O)CCNC(=O)C(O)C(C)(C)COP(=O)(O)OP(=O)(O)OC[C@H]1O[C@@H](n2cnc3c(N)ncnc32)[C@H](O)[C@@H]1OP(=O)(O)O` (stereo not given in full) had a Ki of 43 µM.

The species entered for another assay is Rattus norvegicus. In words: Activity of rat glutaryl-co A dehydrogenase E370Q mutant expressed in Escherichia coli BL21.
Details: not given
On to `CC/C=C\CC(=O)SCCNC(=O)CCNC(=O)C(O)C(C)(C)COP(=O)(O)OP(=O)(O)OC[C@H]1O[C@@H](n2cnc3c(N)ncnc32)[C@H](O)[C@@H]1OP(=O)(O)O` (stereo not given in full), for which the turnover number (kcat) came out at 0.0021 s⁻¹.

For a further assay, the species on record is Rattus norvegicus. In words: Time-dependent inhibition of rat glutaryl-co A dehydrogenase after 30 mins by spectrophotometry.
Details: not given
Turning to `CCCCCC#CC(=O)SCCNC(=O)CCNC(=O)C(O)C(C)(C)COP(=O)(O)OP(=O)(O)OC[C@H]1O[C@@H](n2cnc3c(N)ncnc32)[C@H](O)[C@@H]1OP(=O)(O)O` (stereo not given in full), the inhibition amounted to 2%.

The species named for another assay is Rattus norvegicus. In words: Activity of rat glutaryl-co A dehydrogenase E370A mutant expressed in Escherichia coli BL21.
Details: not given
On to `CC/C=C\CC(=O)SCCNC(=O)CCNC(=O)C(O)C(C)(C)COP(=O)(O)OP(=O)(O)OC[C@H]1O[C@@H](n2cnc3c(N)ncnc32)[C@H](O)[C@@H]1OP(=O)(O)O` (stereo not given in full), for which the kcat turned out to be 0.00078 s⁻¹.
